Test results published in PubChem BioAssay (NCI).
Where “and” joins values, the source holds several entries; their conditions need not be identical. Equal values may be shown once.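 Dose response: 5 concentrations. Exposure: 48 h. Format: 96-well plates. Endpoint: linear interpolation; highest concentration if not reached. The concentration for 50% growth inhibition is given as GI50. TGI: concentration producing complete growth inhibition.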

How the values were obtained:
Experiment in all cases: NCI-60 cell line screen, 48 h
[1] = test system: EKVX NSCLC
[2] = test system: IGROV1 ovarian
[3] = test system: NCI/ADR-RES ovarian
[4] = test system: OVCAR-8 ovarian
[5] = test system: A549 NSCLC
[6] = test system: CCRF-CEM leukemia
[7] = test system: M14 melanoma
[8] = test system: SK-MEL-28 melanoma
[9] = test system: U251 CNS
[10] = test system: SF-268 CNS

Cc1cc(C)c(NC(=O)c2sc3nc4c(cc3c2N)C(=O)CCC4)c(C)c1
GI50 [1]: 4.28 µM
TGI [1]: > 100 µM
GI50 [2]: 5.58 µM
TGI [2]: > 100 µM
GI50 [3]: 2.08 µM
TGI [3]: 6.45 µM
GI50 [4]: 5.88 µM
TGI [4]: > 100 µM
GI50 [5]: 2.51 µM
TGI [5]: > 100 µM
GI50 [6]: 3.15 µM
TGI [6]: > 100 µM
GI50 [7]: 2.31 µM
TGI [7]: > 100 µM
GI50 [8]: 5.9 µM
TGI [8]: > 100 µM
GI50 [9]: 3.49 µM
TGI [9]: > 100 µM
GI50 [10]: 6.69 µM
TGI [10]: > 100 µM

COc1cc(Cc2nccc3cc(OC)c(OC)cc23)c(C(C)=O)cc1OC
TGI [1]: 295 µM
GI50 [2]: 51.4 µM and 92.7 µM
TGI [2]: 300 µM and 440 µM
TGI [3]: > 300 µM
TGI [4]: 3 µM
GI50 [5]: > 750 µM
TGI [5]: > 750 µM
GI50 [6]: 15.4 µM and 16.2 µM
TGI [6]: 98.2 µM and 63 µM
TGI [7]: > 750 µM
GI50 [8]: 20.4 µM and 142 µM
TGI [8]: 42.1 µM and 331 µM
TGI [9]: 300 µM and > 750 µM
TGI [10]: 419 µM

CCc1nc(N)nc(N)c1-c1ccc(NC)c([N+](=O)[O-])c1
TGI [1]: > 100 µM
TGI [2]: > 100 µM
TGI [3]: > 100 µM
TGI [4]: > 100 µM
TGI [5]: > 100 µM
TGI [6]: > 41.8 µM
TGI [7]: > 100 µM
TGI [8]: > 100 µM
TGI [9]: > 100 µM
TGI [10]: > 100 µM

OCC1OC(n2cnc3c2NC=NC[C@H]3O)C(Cl)C1O (some centres undefined)
TGI [1]: > 100 µM
TGI [2]: > 100 µM
TGI [3]: > 100 µM
TGI [4]: > 100 µM
TGI [5]: > 100 µM
TGI [6]: > 100 µM
TGI [7]: > 100 µM
TGI [8]: > 100 µM
TGI [9]: > 100 µM
TGI [10]: > 100 µM

O=C(Nc1n[nH]c2cc(-c3ccccc3)ccc12)C1CC1
GI50 [1]: 24.4 µM
TGI [1]: > 25 µM
GI50 [2]: 19.6 µM
TGI [2]: > 25 µM
GI50 [3]: 1.79 µM
TGI [3]: > 25 µM
GI50 [4]: 14.5 µM
TGI [4]: > 25 µM
GI50 [5]: 11.6 µM
TGI [5]: > 25 µM
GI50 [6]: 8.59 µM
TGI [6]: > 25 µM
GI50 [7]: 15.4 µM
TGI [7]: > 25 µM
GI50 [8]: > 22.1 µM
TGI [8]: > 25 µM
GI50 [9]: 13.6 µM
TGI [9]: > 25 µM
GI50 [10]: > 21.2 µM
TGI [10]: > 25 µM

Cc1cc2nc(C=C(C(F)(F)F)C(F)(F)F)oc2cc1C
TGI [1]: 8.05 µM
TGI [2]: 8.08 µM
TGI [3]: 5.93 µM
TGI [4]: 6.68 µM
TGI [5]: > 10 µM
TGI [6]: 6.74 µM
TGI [7]: 5.03 µM
TGI [8]: > 10 µM
TGI [9]: > 10 µM
TGI [10]: 9 µM

COc1ccc2[nH]c3c4[nH]c5ccc(OC)cc5c4c4c(c3c2c1)C(=O)NC4=O
GI50 [1]: > 25 µM
TGI [1]: > 25 µM
GI50 [2]: > 25 µM
TGI [2]: > 25 µM
GI50 [3]: > 25 µM
TGI [3]: > 25 µM
GI50 [4]: > 13.2 µM
TGI [4]: > 25 µM
GI50 [5]: > 9.75 µM
TGI [5]: > 25 µM
GI50 [6]: 0.757 µM
TGI [6]: > 25 µM
GI50 [7]: > 13.1 µM
TGI [7]: > 25 µM
GI50 [8]: > 25 µM
TGI [8]: > 25 µM
GI50 [9]: > 8.42 µM
TGI [9]: > 25 µM
GI50 [10]: > 22 µM
TGI [10]: > 25 µM

COc1c2c(cc3c1OCO3)[C@]13C=C[C@H](OC)C[C@H]1N(C2)CC3O (some centres undefined)
TGI [1]: > 100 µM
TGI [2]: > 100 µM
TGI [3]: > 100 µM
TGI [4]: > 100 µM
TGI [5]: > 100 µM
TGI [6]: > 100 µM
TGI [7]: > 100 µM
TGI [8]: > 100 µM
TGI [9]: > 100 µM
TGI [10]: > 100 µM

CCCC(CCC)NCC(O)c1cc(-c2ccc(C(F)(F)F)cc2)nc(C(F)(F)F)c1 (centres undefined)
GI50 [1]: 2.01 µM
TGI [1]: 3.81 µM
GI50 [2]: 2.09 µM
TGI [2]: 4.09 µM
GI50 [3]: 1.63 µM
TGI [3]: 3.25 µM
GI50 [4]: 1.83 µM
TGI [4]: 3.68 µM
GI50 [5]: 1.79 µM
TGI [5]: 3.28 µM
GI50 [6]: 2.46 µM
TGI [6]: 5.7 µM
GI50 [7]: 1.75 µM
TGI [7]: 3.32 µM
GI50 [8]: 1.92 µM
TGI [8]: 3.45 µM
GI50 [9]: 1.74 µM
TGI [9]: 3.22 µM
GI50 [10]: 1.86 µM
TGI [10]: 3.38 µM

COc1ccc(C2=C(Cl)c3cc(OC)c(OC)cc3C2Cl)cc1 (centres undefined)
TGI [1]: 66.5 µM
TGI [2]: 35.7 µM
TGI [3]: 33.3 µM
TGI [4]: 50.6 µM
TGI [5]: 36.5 µM
TGI [6]: 21 µM
TGI [7]: 37.1 µM
TGI [8]: 31.8 µM
TGI [9]: 26.6 µM
TGI [10]: 36 µM

NC(=O)c1cc(Cl)ccc1NC(=O)/C=C/c1ccccc1
GI50 [1]: 2.83 µM
TGI [1]: > 100 µM
GI50 [2]: 3.03 µM
TGI [2]: > 100 µM
GI50 [3]: 2.63 µM
TGI [3]: > 26.9 µM
GI50 [4]: 4.7 µM
TGI [4]: > 100 µM
GI50 [5]: 4.18 µM
TGI [5]: > 100 µM
GI50 [6]: 2.96 µM
TGI [6]: > 100 µM
GI50 [7]: 2.25 µM
TGI [7]: > 31.5 µM
GI50 [8]: 2.58 µM
TGI [8]: > 100 µM
GI50 [9]: 2.95 µM
TGI [9]: > 35.4 µM
GI50 [10]: 5.96 µM
TGI [10]: > 60.4 µM

CC/C=C\C[C@H](O)C/C=C1/C(=O)C=C[C@@H]1C/C=C\CCCC(=O)OC
GI50 [1]: 3.11 µM
TGI [1]: 12.4 µM
GI50 [2]: 3.05 µM
TGI [2]: 8.71 µM
GI50 [3]: 2.61 µM
TGI [3]: 10.8 µM
GI50 [4]: 2.61 µM
TGI [4]: 11.1 µM
GI50 [5]: 2.78 µM
TGI [5]: 7.63 µM
GI50 [6]: 0.368 µM
TGI [6]: 11.4 µM
GI50 [7]: 1.32 µM
TGI [7]: 4.72 µM
GI50 [8]: 1.81 µM
TGI [8]: 4.37 µM
GI50 [9]: 1.63 µM
TGI [9]: 4.07 µM
GI50 [10]: 2.56 µM
TGI [10]: 11.8 µM

CCNCCNc1cc(-c2ccc(C(F)(F)F)cc2)c(C#N)c2nc3ccccc3n12
GI50 [1]: 1.62 µM
TGI [1]: 3.07 µM
GI50 [2]: 1.45 µM
TGI [2]: 2.99 µM
GI50 [3]: 1.52 µM
TGI [3]: 2.98 µM
GI50 [4]: 1.75 µM
TGI [4]: 3.6 µM
GI50 [5]: 1.75 µM
TGI [5]: 3.41 µM
GI50 [6]: 0.266 µM
TGI [6]: 0.683 µM
GI50 [7]: 1.66 µM
TGI [7]: 3.16 µM
GI50 [8]: 1.54 µM
TGI [8]: 3.05 µM
GI50 [9]: 0.466 µM
TGI [9]: 1.61 µM
GI50 [10]: 1.48 µM
TGI [10]: 3.04 µM

COc1ccc(C(=O)c2cc(OC)c(OC)c(OC)c2)cc1/C=C/C(=O)c1ccc(F)cc1
GI50 [1]: 11.1 µM
TGI [1]: 31.4 µM
GI50 [2]: 2.59 µM
TGI [2]: 6.73 µM
GI50 [3]: 3.69 µM
TGI [3]: 73.2 µM
GI50 [4]: 3.7 µM
TGI [4]: 37.8 µM
GI50 [5]: 16.5 µM
TGI [5]: > 100 µM
GI50 [6]: 2.24 µM
TGI [6]: 9.69 µM
GI50 [7]: 3.39 µM
TGI [7]: 18 µM
GI50 [8]: 2.48 µM
TGI [8]: 7.25 µM
GI50 [9]: 1.85 µM
TGI [9]: 3.54 µM
GI50 [10]: 3.86 µM
TGI [10]: 16.1 µM

COc1cc2ncnc(-n3ncc4cc(NC(=O)Nc5ccccc5)ccc43)c2cc1OC
GI50 [1]: 1.59 µM
TGI [1]: 7.3 µM
GI50 [2]: 0.427 µM
TGI [2]: 4.62 µM
GI50 [3]: 2.52 µM
TGI [3]: 17.6 µM
GI50 [4]: 5.17 µM
TGI [4]: 28.3 µM
GI50 [5]: 1.79 µM
TGI [5]: 8.74 µM
GI50 [6]: 2.56 µM
TGI [6]: 13.6 µM
GI50 [7]: 1.1 µM
TGI [7]: 4.22 µM
GI50 [8]: 1.38 µM
TGI [8]: 4.33 µM
GI50 [9]: 1.27 µM
TGI [9]: 3.23 µM
GI50 [10]: 1.55 µM
TGI [10]: 11.2 µM
